# Assay results from ChEMBL document CHEMBL3588759, “Structure-based design, synthesis and evaluation in vitro of arylnaphthyridinones, arylpyridopyrimidinones and their tetrahydro derivatives as inhibitors of the tankyrases” (Bioorg Med Chem, 2015).
# Assays:
# [1] = target: T1, Poly [ADP-ribose] polymerase tankyrase-1 (Homo sapiens, UniProt O95271); experiment: Inhibition of human TNKS1 catalytic activity
# T1 sequence (O95271 whole entry): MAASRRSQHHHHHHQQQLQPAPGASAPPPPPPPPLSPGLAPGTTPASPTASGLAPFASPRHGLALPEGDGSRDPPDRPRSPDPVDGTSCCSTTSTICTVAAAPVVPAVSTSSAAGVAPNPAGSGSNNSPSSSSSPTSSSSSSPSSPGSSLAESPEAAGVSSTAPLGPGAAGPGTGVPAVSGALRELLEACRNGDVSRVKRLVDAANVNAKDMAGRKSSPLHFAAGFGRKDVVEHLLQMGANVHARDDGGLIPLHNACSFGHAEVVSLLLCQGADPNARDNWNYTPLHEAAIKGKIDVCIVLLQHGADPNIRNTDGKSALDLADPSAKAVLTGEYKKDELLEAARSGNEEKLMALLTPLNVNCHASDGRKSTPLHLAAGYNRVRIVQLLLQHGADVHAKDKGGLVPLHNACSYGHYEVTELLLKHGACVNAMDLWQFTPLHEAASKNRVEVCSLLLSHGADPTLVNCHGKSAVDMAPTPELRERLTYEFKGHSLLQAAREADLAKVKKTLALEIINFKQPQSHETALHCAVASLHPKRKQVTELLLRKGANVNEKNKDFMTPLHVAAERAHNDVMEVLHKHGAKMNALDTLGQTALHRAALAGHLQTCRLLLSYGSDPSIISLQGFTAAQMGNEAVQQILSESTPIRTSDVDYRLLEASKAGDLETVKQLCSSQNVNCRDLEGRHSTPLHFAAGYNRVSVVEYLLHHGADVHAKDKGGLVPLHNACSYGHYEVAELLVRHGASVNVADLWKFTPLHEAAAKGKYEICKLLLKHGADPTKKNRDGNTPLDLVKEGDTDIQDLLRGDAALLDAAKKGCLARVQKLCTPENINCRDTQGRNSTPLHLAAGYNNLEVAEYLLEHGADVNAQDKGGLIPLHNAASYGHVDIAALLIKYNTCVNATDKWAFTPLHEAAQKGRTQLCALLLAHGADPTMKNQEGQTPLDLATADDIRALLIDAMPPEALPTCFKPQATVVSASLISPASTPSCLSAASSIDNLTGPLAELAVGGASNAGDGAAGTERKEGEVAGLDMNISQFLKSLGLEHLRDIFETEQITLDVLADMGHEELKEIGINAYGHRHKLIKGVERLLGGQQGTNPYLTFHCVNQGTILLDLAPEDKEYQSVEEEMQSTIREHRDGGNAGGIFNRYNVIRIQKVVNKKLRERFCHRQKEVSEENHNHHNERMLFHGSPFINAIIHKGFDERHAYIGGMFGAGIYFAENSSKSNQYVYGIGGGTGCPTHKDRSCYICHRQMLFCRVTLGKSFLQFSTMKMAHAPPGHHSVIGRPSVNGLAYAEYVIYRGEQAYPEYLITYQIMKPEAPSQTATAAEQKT
# [2] = system: HT-29; experiment: Antiproliferative activity against human HT-29 cells
# [3] = Antiproliferative activity against human FEK4 cells
# [4] = target: T2, Poly [ADP-ribose] polymerase tankyrase-2 (Homo sapiens, UniProt Q9H2K2); experiment: Inhibition of human TNKS2 catalytic activity
# T2 sequence (Q9H2K2 whole entry): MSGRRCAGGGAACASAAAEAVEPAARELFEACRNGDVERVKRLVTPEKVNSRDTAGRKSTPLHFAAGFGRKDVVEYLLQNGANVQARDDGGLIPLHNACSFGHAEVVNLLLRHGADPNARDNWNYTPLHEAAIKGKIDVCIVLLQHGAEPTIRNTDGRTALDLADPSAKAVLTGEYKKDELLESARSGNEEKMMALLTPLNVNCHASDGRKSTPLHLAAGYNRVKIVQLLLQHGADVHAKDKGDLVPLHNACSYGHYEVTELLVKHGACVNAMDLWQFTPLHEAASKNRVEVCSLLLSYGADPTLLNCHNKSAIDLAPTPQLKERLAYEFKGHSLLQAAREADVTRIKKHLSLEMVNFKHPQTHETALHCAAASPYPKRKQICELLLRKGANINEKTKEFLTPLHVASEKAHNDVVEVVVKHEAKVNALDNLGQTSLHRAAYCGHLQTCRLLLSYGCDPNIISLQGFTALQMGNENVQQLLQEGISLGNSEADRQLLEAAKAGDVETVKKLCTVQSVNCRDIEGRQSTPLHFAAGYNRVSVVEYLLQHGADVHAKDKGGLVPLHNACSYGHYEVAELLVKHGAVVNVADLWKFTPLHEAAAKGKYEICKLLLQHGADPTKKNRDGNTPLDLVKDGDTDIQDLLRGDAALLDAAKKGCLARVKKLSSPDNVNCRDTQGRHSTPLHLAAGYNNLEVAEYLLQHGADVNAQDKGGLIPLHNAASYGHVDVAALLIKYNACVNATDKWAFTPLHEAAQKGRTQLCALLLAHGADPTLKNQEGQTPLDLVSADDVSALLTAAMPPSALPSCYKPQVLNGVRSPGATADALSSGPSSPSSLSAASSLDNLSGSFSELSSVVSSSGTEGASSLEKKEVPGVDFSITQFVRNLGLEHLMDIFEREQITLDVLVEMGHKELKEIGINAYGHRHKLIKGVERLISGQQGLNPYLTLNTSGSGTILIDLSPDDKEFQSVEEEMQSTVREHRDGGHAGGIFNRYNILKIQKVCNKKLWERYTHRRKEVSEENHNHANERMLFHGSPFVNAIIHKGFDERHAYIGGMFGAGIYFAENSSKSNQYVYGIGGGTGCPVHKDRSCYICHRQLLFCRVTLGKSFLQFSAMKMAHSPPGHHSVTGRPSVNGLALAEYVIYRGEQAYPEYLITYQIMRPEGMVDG
# [5] = target: Poly [ADP-ribose] polymerase 1 (Homo sapiens, UniProt P09874); experiment: Inhibition of human PARP1
# Chain of Poly [ADP-ribose] polymerase 1 (P09874 whole entry): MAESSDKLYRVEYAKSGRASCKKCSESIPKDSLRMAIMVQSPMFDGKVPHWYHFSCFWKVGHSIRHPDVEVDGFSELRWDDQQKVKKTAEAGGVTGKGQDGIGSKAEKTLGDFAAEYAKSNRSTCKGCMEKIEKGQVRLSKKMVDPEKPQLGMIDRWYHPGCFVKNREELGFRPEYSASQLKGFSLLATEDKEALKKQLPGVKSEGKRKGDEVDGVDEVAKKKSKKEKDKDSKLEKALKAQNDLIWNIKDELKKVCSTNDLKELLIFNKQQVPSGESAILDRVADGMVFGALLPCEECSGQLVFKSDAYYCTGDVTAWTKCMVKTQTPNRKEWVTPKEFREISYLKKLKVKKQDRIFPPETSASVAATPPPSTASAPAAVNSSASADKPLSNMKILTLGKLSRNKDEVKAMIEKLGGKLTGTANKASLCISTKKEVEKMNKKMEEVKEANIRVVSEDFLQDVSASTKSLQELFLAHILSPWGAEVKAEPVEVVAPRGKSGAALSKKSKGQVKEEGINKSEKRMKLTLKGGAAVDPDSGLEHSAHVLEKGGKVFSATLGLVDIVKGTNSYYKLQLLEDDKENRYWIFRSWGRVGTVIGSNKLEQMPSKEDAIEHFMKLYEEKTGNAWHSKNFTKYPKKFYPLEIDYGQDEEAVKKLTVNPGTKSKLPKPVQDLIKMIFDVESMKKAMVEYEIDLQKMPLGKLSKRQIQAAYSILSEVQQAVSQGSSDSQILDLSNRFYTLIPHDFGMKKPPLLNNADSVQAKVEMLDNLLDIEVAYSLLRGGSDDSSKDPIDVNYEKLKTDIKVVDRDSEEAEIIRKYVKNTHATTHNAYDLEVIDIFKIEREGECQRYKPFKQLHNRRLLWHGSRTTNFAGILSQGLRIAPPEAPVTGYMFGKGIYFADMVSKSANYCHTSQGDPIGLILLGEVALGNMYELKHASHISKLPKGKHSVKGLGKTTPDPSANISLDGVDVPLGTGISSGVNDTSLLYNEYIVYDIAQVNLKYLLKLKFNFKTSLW
Compound,IC50 [1],IC50 [2],IC50 [3],IC50 [4],IC50 [5]
COc1ccc(-c2cc3c(c(=O)[nH]2)CCCN3C)cc1,0.0011 µM,> 200 µM,> 200 µM,–,–
CN1CCCc2c1cc(-c1ccccc1)[nH]c2=O,0.097 µM,> 500 µM,> 500 µM,–,–
O=c1[nH]c(-c2ccccc2)cc2ccncc12,1.3 µM,> 500 µM,> 500 µM,–,–
O=c1[nH]c(-c2ccccc2)cc2ncccc12,5 µM,> 500 µM,> 500 µM,–,–
CN1CCCc2c1cc(-c1ccc(Cl)cc1)[nH]c2=O,0.021 µM,26 µM,> 500 µM,–,–
CN1CCCc2c1cc(-c1ccc(C(F)(F)F)cc1)[nH]c2=O,0.0015 µM,> 200 µM,> 200 µM,–,–
CN1CCCc2c1cc(-c1ccc(Br)cc1)[nH]c2=O,0.0061 µM,26 µM,> 500 µM,0.423 µM,2 µM
Cc1ccc(-c2cc3cnccc3c(=O)[nH]2)cc1,6.2 µM,157 µM,> 500 µM,–,–
